# Results published in ChEMBL document CHEMBL1127718, “Quinoline-4-carboxylic acids as angiotensin II receptor antagonists” (Bioorg Med Chem Lett, 1994).
# Legend:
# Oryctolagus cuniculus = organism: Oryctolagus cuniculus; assay: In vitro functional antagonism was determined by ability of a single concentration of compound to block AII induced contractions in rabbit aortic smooth muscle strip; conditions: Aorta
# [1] = molecular target: T1, Type-1 angiotensin II receptor B (Rattus norvegicus, UniProt P29089); assay: Inhibition of [125I]Sar1,Ile8 angiotensin II binding to Angiotensin II receptor type 1 in rat adrenocortical membrane; format: cell membranes
# T1 sequence (P29089 whole entry): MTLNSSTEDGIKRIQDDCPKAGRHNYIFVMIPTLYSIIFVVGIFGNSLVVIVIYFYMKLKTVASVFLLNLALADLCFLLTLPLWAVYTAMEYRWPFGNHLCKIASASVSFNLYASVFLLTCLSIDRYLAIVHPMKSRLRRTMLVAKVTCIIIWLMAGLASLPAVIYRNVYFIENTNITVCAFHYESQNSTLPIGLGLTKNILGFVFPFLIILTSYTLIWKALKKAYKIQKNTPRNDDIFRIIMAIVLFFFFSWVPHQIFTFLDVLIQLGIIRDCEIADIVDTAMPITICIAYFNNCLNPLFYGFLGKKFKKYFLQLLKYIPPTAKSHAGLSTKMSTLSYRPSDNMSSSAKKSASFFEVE
structure (smiles),measurement,setting,value
Cc1cccc2c(C(=O)O)c(Oc3ccc(-c4ccccc4-c4nnn[nH]4)cc3)c(C3CC3)nc12,Kb,Oryctolagus cuniculus,8.3 nM
same,Ki,[1],1300 nM
Cc1cccc2nc(C3CC3)c(Oc3ccc(-c4ccccc4-c4nnn[nH]4)cc3)c(C(=O)O)c12,Kb,Oryctolagus cuniculus,0.4 nM
same,Ki,[1],12 nM
O=C(O)c1c(Oc2ccc(-c3ccccc3-c3nnn[nH]3)cc2)c(C2CC2)nc2cccnc12,Kb,Oryctolagus cuniculus,0.67 nM
same,Ki,[1],2.1 nM
O=C(O)c1c(Oc2ccc(-c3ccccc3-c3nn[nH]n3)cc2)c(C2CC2)nc2ccccc12,Kb,Oryctolagus cuniculus,0.061 nM
same,Ki,[1],2.9 nM
Cc1nc2ccccc2c(C(=O)O)c1Oc1ccc(-c2ccccc2-c2nn[nH]n2)cc1,Kb,Oryctolagus cuniculus,1.1 nM
same,Ki,[1],3.2 nM
O=C(O)c1c(Oc2ccc(-c3ccccc3-c3nnn[nH]3)cc2)c(C2CC2)nc2ncccc12,Kb,Oryctolagus cuniculus,0.76 nM
same,Ki,[1],4.6 nM
O=C(O)c1cccc2nc(C3CC3)c(Oc3ccc(-c4ccccc4-c4nn[nH]n4)cc3)c(C(=O)O)c12,Kb,Oryctolagus cuniculus,2 nM
same,Ki,[1],120 nM
CCc1nc2ccccc2c(C(=O)O)c1Oc1ccc(-c2ccccc2-c2nn[nH]n2)cc1,Kb,Oryctolagus cuniculus,0.12 nM
same,Ki,[1],5.9 nM
O=C(O)c1c(Oc2ccc(-c3ccccc3-c3nnn[nH]3)cc2)c(C2CC2)nc2ccc(F)cc12,Kb,Oryctolagus cuniculus,0.61 nM
same,Ki,[1],14 nM
CCCc1nc2ccccc2c(C(=O)O)c1Oc1ccc(-c2ccccc2-c2nnn[nH]2)cc1,Kb,Oryctolagus cuniculus,0.091 nM
same,Ki,[1],3.4 nM
COc1ccc2nc(C3CC3)c(Oc3ccc(-c4ccccc4-c4nn[nH]n4)cc3)c(C(=O)O)c2c1,Kb,Oryctolagus cuniculus,0.2 nM
same,Ki,[1],33 nM
O=C(O)c1c(Oc2ccc(-c3ccccc3-c3nn[nH]n3)cc2)c(C2CC2)nc2cc(Cl)ccc12,Kb,Oryctolagus cuniculus,0.18 nM
same,Ki,[1],32 nM
